Laboratory results: patent US20110071075A1, “PROMOTER FOR BICARBONATE SECRETION IN GASTROINTESTINAL TRACT” (priority 2008, published 2011)
“Also recorded” adds a separate entry of the source. *1 amine or outer side, *2 acyl side, *3 side chain or, on linkers, in order; H or OH if unused. Where no end group is shown, it is not given here. [ ]: non-standard residue; d: D form. γGlu = O=C(O)[C@H](CCC(=O)[*:2])N[*:1]

Assays:
[1] = system: gastric mucosal D cells; assay: Somatostatin secretion of cultured fractionated gastric mucosal D cells (somatostatin ELISA); format: cell-based, male SD rat; conditions: 90 minutes culture
Procedure: The abdomen of each male SD rat was opened in the midline under anesthesia to remove the stomach. The stomach was ligated at the cardiac region and at the junction between the gastric body and the pylorus, and the pyloric region was excised. After that, the stomach was everted so that the luminal side is exposed outside. To the inside of the stomach, Buffer A containing 2.5 mg/ml protease (Sigma P6911, Protease, From Streptomyces griseus, 5.5 unit/mg solid) was injected to prepare a balloon. The balloon was shaken at 37° C. for 30 minutes in Buffer A for 30 minutes and in Buffer B for 30 minutes×three times. After that, the balloon was stirred three times in Buffer B containing 0.5 mg/ml DNase, the detached cells were centrifuged and then suspended in Buffer C. After the cell suspension had been filtered with a filter, cells were fractionated and collected with an elutriator manufactured by Hitachi, Ltd.
Repeated fractionation was conducted using an elutriator in accordance with Example 3 to collect D cells with high purity. After centrifugation, the cells were suspended in a cell culture medium (D-MEM/F-12 containing 10% FBS) and cultured in a CO2 incubator ([…]+5% CO2, 37° C.) (6×10^5 cells/250 μL/well). After 2-day culture, to the D cells washed with PBS was added each of CaSR agonists (20 μM cinacalcet (CCT), 20 μM γ-EVG, 10 mM phenylalanine (Phe), and 10 mM histidine (His)) mixed in a culture buffer (122 mM NaCl, 5 mM KCl, 25 mM NaHCO3, 1.3 mM MgSO4, 2 mM CaCl2, 15 mM HEPES, and 20 mM glucose, pH 7.4), and the cells were cultured for 90 minutes. After that, a culture supernatant was collected, filtered with a filter, and then measured for its somatostatin concentration with a somatostatin ELISA kit (manufactured by Phoenix, Calif.).
The somatostatin secretion was measured in accordance with the method of Example 4. After 2-day culture, to the D cells washed with PBS was added a CaSR agonist (20 μM γ-EVG), sodium glutamate (60 mM MSG), or a mixed solution thereof, mixed in a culture buffer (122 mM NaCl, 5 mM KCl, 25 mM NaHCO3, 1.3 mM MgSO4, 2 mM CaCl2, 15 mM HEPES, and 20 mM glucose, pH 7.4), and the cells were cultured for 90 minutes. After that, the culture supernatant was collected, filtered with a filter, and then the somatostatin concentration was measured by a somatostatin ELISA kit (Phoenix, Calif.).

[2] = system: histamine-induced gastric acid secretion; assay: Histamine-induced gastric acid secretion in the removed, perfused stomach (pH-stat method); parameters: species or system male ddY mice; conditions: for histamine-induced gastric acid secretion: 100 μM histamine
Procedure: A model prepared in accordance with the method reported by Horie et al. (British Journal of Pharmacology 1994; 112: 87-92) was used as a model for histamine-induced gastric acid secretion. That is, 6-week-old male ddY mice were fasted for 18 hours, and the stomach was removed from each of the mice under anesthesia with urethane (1.25 g/kg/10 ml, intraperitoneal administration). A polyethylene cannula was inserted at each of the pyloric and esophageal sides of the stomach, and the stomach was left to stand still in an organ bath filled with a buffer (118.1 mM NaCl, 4.8 mM KCl, 1.0 mM KH2PO4, 16.0 mM Na2HPO4, 1.2 mM MgSO4, 0.65 mM CaCl2, and 31.6 mM glucose, saturated with 95% O2/5% CO2 gas, 37° C.). The intragastric pressure was kept at 15 cmH2O, and the lumen of the stomach was perfused with a buffer (135.8 mM NaCl, 4.8 mM KCl, 1.2 mM MgSO4, 1.3 mM CaCl2, and 31.6 mM glucose, pH 5.4, saturated with 95% O2/5% CO2 gas, 37° C.) at a flow rate of 1 ml/min
The acid secretion amount was continuously measured by dropping 10 mM NaOH to a perfusate until an end point of pH 5.4 by employing a pH-stat method (TOA, AUT-501). The intragastric acid secretion amount during no stimulation was measured for 30 minutes, and then the remove stomach left to stand still in the organ bath was treated with 100 μM histamine and cinacalcet (1.26, 12.6, and 126 μM). The gastric acid secretion amount was titrated for up to 90 minutes. The Dunnett's test was used as a statistical test for an effect of cinacalcet.
The gastric acid secretion was measured in accordance with the method of Example 2.

[3] = system: duodenum; assay: Bicarbonate secretion in the duodenum loop of anesthetized rats (pH-stat method); format: in vivo, male SD rats
Procedure: (§1) The bicarbonate secretion was evaluated in accordance with the methods of Aihara et al. (Aihara, E. et al. 2005. J. Pharmacol. Exp. Ther. 315: 423-432) and Kagawa et al. (Kagawa, S. et al. 2003. Digestive Diseases and Sciences 48: 1850-1856).
As for the bicarbonate secretion in the duodenum, the abdomen of each of male SD rats was opened under anesthesia, and a duodenum loop having a length of 1.7 cm from the pyloric ring of the stomach was prepared. The lumen of the loop was perfused with physiological saline saturated with 100% O2 gas (flow rate: 1 ml/min)
(§2) A drug was administered into the gastric or duodenal lumen after the bicarbonate secretion at the baseline had been measured for 30 minutes, and the bicarbonate secretion amount was measured every 10 minutes.
The abdomens of male SD rats were opened under anesthesia, and a duodenum loop having a length of 1.7 cm from the pyloric ring of the stomach was prepared. The lumen of the loop was perfused with physiological saline saturated with 100% O2 gas (flow rate: 1 ml/min).
After the bicarbonate secretion at the baseline had been measured for 30 minutes, distilled water for injection containing γ-EVG (100 mg/kg) or distilled water for injection (normal) was administered into the duodenal lumen, and the bicarbonate secretion amount was measured every 10 minutes.

[4] = system: stomach; assay: Bicarbonate secretion in the stomach of anesthetized rats (ex-vivo chamber, pH-stat method); parameters: species or system male SD rats; conditions: 10 mg/kg administered into the gastric lumen; omeprazole 60 mg/kg i.p. to inhibit acid secretion
Procedure: as §1
The bicarbonate secretion in the stomach was measured as described below. The abdomen of each of male SD rats was opened in the midline under anesthesia with urethane (1.25 g/kg/5 ml, intraperitoneal administration) to expose the stomach. The stomach was left to stand still in an ex-vivo chamber (Tamura Seisakusho; 3.1 cm^2) and perfused with physiological saline saturated with 100% O2 gas. In order to inhibit acid secretion, 60 mg/kg omeprazole was intraperitoneally administered. The bicarbonate secretion was continuously measured by dropping 2 mM HCl to a perfusate until an end point of pH 7.0 by employing a pH-stat method (TOA, AUT-501).
as §2

[5] = system: NSAID-induced enteritis; assay: NSAID (loxoprofen)-induced enteritis, damaged area in the small intestine; format: in vivo, rats; conditions: 30 minutes before loxoprofen 60 mg/kg oral, 24 hours
Procedure: To non-fasting rats, distilled water for injection containing cinacalcet (1, 3, 10, and 100 mg/kg) or γ-EVG (100 mg/kg), or distilled water for injection (control) was orally administered. After 30 minutes, loxoprofen (60 mg/kg) was orally administered, and the rats were left to stand for 24 hours. 1 ml of 1% (w/w) Evans Blue dye was intravenously administered, and after 30 minutes, the rats were euthanized under deep ether anesthesia. The small intestine (from the duodenum to the ileum) of each of the rats was removed, then immersed in 2% formalin for 10 minutes so that the small intestine might be fixed from the serosal side, and incised from the opposite side of the mesentery, and the damaged area in the small intestine (mm^2) was measured with a dissecting microscope of 10 times power. The t-test or Dunnett's test was used for a statistical test and p<0.05 was considered significant.

N[C@@H](CCC(=O)[O-])C(=O)[O-].[Na+].[Na+] [MSG, sodium glutamate]
somatostatin secretion ([1]; 60 mM MSG): remarkably inhibited

N[C@@H](Cc1c[nH]cn1)C(=O)O [His, histidine]
somatostatin secretion ([1]; 10 mM): remarkably promoted

C[C@@H](NCCCc1cccc(C(F)(F)F)c1)c1cccc2ccccc12.Cl [cinacalcet, (R)—N-(3-(3-trifluoromethylphenyl)propyl)-1-(1-naphthyl)ethylamine hydrochloride]
histamine-induced gastric acid secretion ([2]; 12.6 μM cinacalcet): inhibited | histamine-induced gastric acid secretion ([2]; cinacalcet 1.26, 12.6 and 126 μM): inhibited histamine-induced gastric acid secretion dose-dependently | histamine-induced gastric acid secretion ([2]; concentration of 126 μM): completely inhibited | bicarbonate secretion in the duodenum ([3]; 10 mg/kg administered into the duodenal lumen): promoted | somatostatin secretion ([1]; 20 μM): remarkably promoted | bicarbonate secretion in the stomach [4]: promoted | damaged area in the small intestine ([5]; 1, 3, 10 and 100 mg/kg oral): reduced the damaged area dose-dependently

NCCc1c[nH]cn1 [histamine]
gastric acid secretion ([2]; 100 μM histamine alone): promoted | acid secretion amount ([2]; 100 μM histamine stimulation, 0.5 to 0.8 nEq/10 min during no stimulation): about 3.2 nEq/10 min

[γGlu]-Val-Gly [γ-EVG]
bicarbonate secretion in the duodenum ([3]; 100 mg/kg administered into the duodenal lumen): promoted | somatostatin secretion ([1]; 20 μM): remarkably promoted; also recorded: markedly promoted | damaged area in the small intestine ([5]; 100 mg/kg oral): reduced the damaged area

N[C@@H](Cc1ccccc1)C(=O)O [Phe, phenylalanine]
somatostatin secretion ([1]; 10 mM): remarkably promoted
